Activity calls are given as the source filed them. No cut-off for these calls is given here. Square brackets hold non-standard residues; d marks the D form. Peptide text beside a SMILES is read from it. * marks the point of attachment. ξ: configuration not given here. C18 diacid = O=C(O)CCCCCCCCCCCCCCCCC(=O)*; Myristoyl = CCCCCCCCCCCCCC(=O)*; ξR = N=C(N)NCCCC(N)C(=O)O
How the values were obtained:
[1] = molecular target: T1, Tyrosine-protein phosphatase non-receptor type 1 (Homo sapiens) (UniProt P18031); assay: Inhibition of N-terminal His tagged recombinant human PTP1B expressed in Escherichia coli using pNPP as substrate assessed as substrate hydrolysis at 40 umol/L relative to control; conditions: dose 40.0 µmol/L
T1 sequence (whole entry): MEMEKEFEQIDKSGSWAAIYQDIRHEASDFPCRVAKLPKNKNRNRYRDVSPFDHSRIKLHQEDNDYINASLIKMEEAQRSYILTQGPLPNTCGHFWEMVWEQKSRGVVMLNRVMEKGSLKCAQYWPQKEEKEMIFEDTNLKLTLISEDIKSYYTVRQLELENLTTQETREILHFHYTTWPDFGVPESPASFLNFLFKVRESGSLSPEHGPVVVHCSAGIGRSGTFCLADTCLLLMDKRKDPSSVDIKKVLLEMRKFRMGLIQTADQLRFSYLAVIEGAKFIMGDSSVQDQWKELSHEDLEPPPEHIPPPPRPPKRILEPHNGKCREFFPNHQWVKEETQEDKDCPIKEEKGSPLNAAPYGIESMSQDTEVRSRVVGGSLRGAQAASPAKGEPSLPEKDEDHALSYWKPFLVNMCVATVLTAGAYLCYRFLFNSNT

[2] = molecular target: T2, Tyrosine-protein phosphatase non-receptor type 2 (Homo sapiens, UniProt P17706); assay: Inhibition of recombinant human TC-PTP (1 to 314 residues) expressed in baculovirus infected insect cells using pNPP as substrate assessed as substrate hydrolysis; parameters: species or system Insect cell
T2 sequence (P17706 whole entry): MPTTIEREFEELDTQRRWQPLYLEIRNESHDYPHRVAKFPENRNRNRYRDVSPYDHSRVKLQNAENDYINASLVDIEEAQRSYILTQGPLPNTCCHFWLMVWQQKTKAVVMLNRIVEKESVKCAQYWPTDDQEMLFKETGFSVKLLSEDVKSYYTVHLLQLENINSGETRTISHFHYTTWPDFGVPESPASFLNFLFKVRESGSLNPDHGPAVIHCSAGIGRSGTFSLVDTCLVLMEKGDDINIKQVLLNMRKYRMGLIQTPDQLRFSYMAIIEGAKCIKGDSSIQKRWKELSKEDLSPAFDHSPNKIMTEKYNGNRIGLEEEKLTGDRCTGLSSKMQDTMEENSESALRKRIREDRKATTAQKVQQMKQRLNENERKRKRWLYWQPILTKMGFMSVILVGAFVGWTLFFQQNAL

[3] = molecular target: T3, Tyrosine-protein phosphatase non-receptor type 2 (Homo sapiens) (UniProt P17706); assay: Inhibition of recombinant human TC-PTP (1 to 314 residues) expressed in baculovirus infected insect cells using pNPP as substrate assessed as substrate hydrolysis at 50 umol/L relative to control; conditions: Insect cell, dose 50.0 µmol/L
T3 sequence (whole entry): T2 sequence (P17706 whole entry)

Homo sapiens = organism: Homo sapiens; assay: Selectivity index, ratio of IC50 for inhibition of recombinant human TC-PTP (1 to 314 residues) expressed in baculovirus infected insect cells to IC50 for inhibition of N-terminal His-tagged recombinant human PTP1B expressed in Escherichia coli
Proteinase K = assay: Stability of compound assessed as Proteinase K (unknown origin) mediated compound degradation by measuring half-life by HPLC analysis; assay type: ADME
chymotrypsin [4] = molecular target: chymotrypsin (Homo sapiens, UniProt P17538+P40313+Q6GPI1+Q99895); assay: Stability of compound assessed as chymotrypsin (unknown origin) mediated compound degradation by measuring half-life by RP-HPLC analysis; assay type: ADME, protein assay
carboxypeptidase A = molecular target: T4, carboxypeptidase A (Homo sapiens, UniProt P15085); assay: Stability of compound assessed as carboxypeptidase A (unknown origin) mediated compound degradation by measuring half-life by RP-HPLC analysis; assay type: ADME
T4 sequence (P15085 whole entry): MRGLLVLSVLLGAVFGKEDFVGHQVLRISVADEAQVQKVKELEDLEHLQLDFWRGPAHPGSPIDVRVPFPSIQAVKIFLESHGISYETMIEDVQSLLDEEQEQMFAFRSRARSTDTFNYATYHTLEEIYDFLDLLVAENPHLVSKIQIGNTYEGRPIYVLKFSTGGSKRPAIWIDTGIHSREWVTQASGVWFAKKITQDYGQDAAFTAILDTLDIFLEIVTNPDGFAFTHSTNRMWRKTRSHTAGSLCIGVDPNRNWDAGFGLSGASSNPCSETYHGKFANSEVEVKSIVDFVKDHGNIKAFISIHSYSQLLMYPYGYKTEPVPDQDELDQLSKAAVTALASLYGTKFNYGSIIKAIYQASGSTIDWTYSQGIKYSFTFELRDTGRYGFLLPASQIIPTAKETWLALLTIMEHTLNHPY

Mus musculus [5] = assay: Antidiabetic activity against C57BL/Ks db/db mouse assessed as reduction in fasting blood glucose level at 1 uM/kg, sc administered once every 2 days for 2 weeks by glucometer analysis; assay type: functional, organism-based
Mus musculus [6] = assay: Antidiabetic activity against C57BL/Ks db/db mouse assessed as reduction in fasting blood glucose level at 1 uM/kg, sc administered once a week for 2 weeks by glucometer analysis; assay type: functional, organism-based
Chymotrypsin [7] = molecular target: Chymotrypsin (Homo sapiens, UniProt Q99895+P17538+P40313+Q6GPI1); assay: Stability of compound assessed as chymotrypsin (unknown origin) mediated compound degradation by measuring fold change of half-life by RP-HPLC analysis relative to BimBH312-mer peptide; assay type: ADME, protein assay
[8] = Toxicity in C57BL/Ks db/db mouse assessed as signs of discomfort at 1 uM/kg, sc administered for 2 weeks; assay type: organism-based; conditions: in vivo, 336 h
Mus musculus [9] = assay: Antidiabetic activity against C57BL/Ks db/db mouse assessed as redcution in fasting blood glucose level at 1 umol/kg administered subcutaneously and measured immediately by glucometer analysis (reference value: 19.0 +/- 2.7 […]); assay type: functional; conditions: dose 1 µmol/kg; route sc
Mus musculus [10] = assay: Antidiabetic activity against C57BL/Ks db/db mouse assessed as redcution in fasting blood glucose level at 1 umol/kg, sc administered once a week and measured on day 8 by glucometer analysis (reference value: 27.7 +/- 3.7 […]); assay type: functional; conditions: dose 1 µmol/kg, time 8 day
Mus musculus [11] = assay: Antidiabetic activity against C57BL/Ks db/db mouse assessed as redcution in fasting blood glucose level at 1 umol/kg, sc administered once a week and measured on day 15 by glucometer analysis (reference value: 27.3 +/- 2.4 […]); assay type: functional; conditions: dose 1 µmol/kg, time 15 day
Mus musculus [12] = assay: Antidiabetic activity against C57BL/Ks db/db mouse assessed as redcution in fasting blood glucose level at 1 umol/kg, sc administered once a week and measured on day 24 by glucometer analysis (reference value: 30.2 +/- 3.2 […]); assay type: functional; conditions: dose 1 µmol/kg, time 24 day
Mus musculus [13] = assay: Antidiabetic activity against over-night fasted C57BL/ks db/db mouse assessed as suppression of increased blood glucose concentration at 1 uM/kg, sc pretreated with compound for 4 weeks followed by oral glucose stimulation and measured upto 120 mins by oral glucose tolerance test; assay type: functional, organism-based; conditions: time 40440.0 min
Mus musculus [14] = assay: Antidiabetic activity against sc dosed C57BL/Ks db/db mouse assessed as reduction in serum insulin level at 1 umol/kg by ELISA analysis; assay type: functional, organism-based; conditions: dose 1.0 µmol/kg
Mus musculus [15] = assay: Antidiabetic activity against sc dosed C57BL/Ks db/db mouse assessed as reduction in C-peptide level at 1 umol/kg by ELISA analysis; assay type: functional, organism-based; conditions: dose 1.0 µmol/kg

Compound | inhibition [1] [%] | IC50 [2] [µM] | inhibition [3] [%] | Ratio IC50 (Homo sapiens) | half-life (Proteinase K) [min] | half-life (chymotrypsin [4]) [min] | half-life (carboxypeptidase A) [min] | Activity (Mus musculus [5]) | Activity (Mus musculus [6]) | fold change (FC) (Chymotrypsin [7]) | Activity [8] | Fasting blood glucose level (Mus musculus [9]) [mmol/L] | Fasting blood glucose level (Mus musculus [10]) [mmol/L] | Fasting blood glucose (Mus musculus [11]) [mmol/L] | Fasting blood glucose level (Mus musculus [12]) [mmol/L] | Activity (Mus musculus [13]) | Activity (Mus musculus [14]) | Activity (Mus musculus [15])
CCCCCCCCCCCCCC(=O)N[C@H](C(=O)N[C@@H](C)C(=O)N[C@@H](CCC(N)=O)C(=O)N[C@@H](CCC(=O)O)C(=O)N[C@@H](CC(C)C)C(=O)N[C@@H](CCCNC(=N)N)C(=O)NC(CCCNC(=N)N)C(=O)N[C@H](C(=O)NCC(=O)N[C@@H](CC(=O)O)C(=O)N[C@@H](CCC(=O)O)C(=O)N[C@@H](Cc1ccccc1)C(=O)O)[C@@H](C)CC)[C@@H](C)CC (stereo partly specified) (Myristoyl-IAQELR[ξR]IGDEF-OH) | > 50 | > 50 | < 50 | > 190 | 17.4 | 178 | 61.2 | Active | Active | 68.8 | Non-Toxic | 20.9 | 10.3 | 8.3 | 14.2 | Active | Active | Active
CC[C@H](C)[C@H](NC(=O)CCCCCCCCCCCCCCCCC(=O)O)C(=O)N[C@@H](C)C(=O)N[C@@H](CCC(N)=O)C(=O)N[C@@H](CCC(=O)O)C(=O)N[C@@H](CC(C)C)C(=O)N[C@@H](CCCNC(=N)N)C(=O)NC(CCCNC(=N)N)C(=O)N[C@H](C(=O)NCC(=O)N[C@@H](CC(=O)O)C(=O)N[C@@H](CCC(=O)O)C(=O)N[C@@H](Cc1ccccc1)C(=O)O)[C@@H](C)CC (stereo partly specified) ({C18 diacid}-IAQELR[ξR]IGDEF-OH) | > 50 | > 50 | < 50 | > 130 | 7.8 | 12 | 271 | Active | Active | 4.7 | Non-Toxic | 19.8 | 11.1 | 8.7 | 14.3 | Active | Active | Active

From ChEMBL document CHEMBL5316338, “Discovery of Novel PTP1B Inhibitors with Once-Weekly Therapeutic Potential for Type 2 Diabetes: Design, Synthesis, and In Vitro and In Vivo Investigations of BimBH3 Peptide Analogues” (J Med Chem, 2023)
